Assay results taken from PMC12029309, “Synthesis and Antifungal Activity of 1,2,4-Oxadiazole Derivatives” (Molecules, 2025).
In brackets after ≈: the same amount, converted by molar mass.

Columns and labels:
Type in all cases: cell-based
[1] = system: R. solani; assay: microbe, parasite or virus in culture; conditions: Rhizoctonia solani, read-out: The Inhibition Rate (%) R. solani
[2] = system: F. graminearum; assay: microbe, parasite or virus in culture; conditions: Fusarium graminearum; for inhibition at 50 µg/mL: read-out: The Inhibition Rate (%) F. graminearum
[3] = system: E. turcicum; assay: Mycelial growth inhibition test in vitro (E. turcicum); conditions: Exserohilum turcicum; 50 μg/mL, mean ± SD of three replicates; read-out: The Inhibition Rate (%) E. turcicum
[4] = system: B. cinerea; assay: Mycelial growth inhibition test in vitro (B. cinerea); conditions: Botrytis cinerea; 50 μg/mL, mean ± SD of three replicates; read-out: The Inhibition Rate (%) B. cinerea
Experimental: (§1) The antifungal activity of the target compound was tested by the mycelial growth inhibition rate method. The compounds were detected at a concentration of 50 μg/mL, and carbendazim was used as the positive control. The antifungal activity was carried out according to literature reports. After drilling the mycelium (3 mm), it was inoculated into the PDA medium containing compounds, and the Petri dish was put into the incubator at 25 °C for 12-48 h; then, the colony diameter was measured with 50 index vernier caliper by the cross method, and the data were recorded. […] • A: The average diameter of the blank medium colony. • B: Diameter of mushroom cake (3 mm). • C: The average diameter of the colonies in the medium containing compound.

[5] = system: C. capsica; assay: Mycelial growth inhibition test in vitro (C. capsica); conditions: Colletotrichum; 50 μg/mL, mean ± SD of three replicates; read-out: The Inhibition Rate (%) C. capsica
Experimental: as §1, with “compound. […] The PDA medium containing different concentrations of the compound was prepared by the two-fold dilution method, the final concentration of the compound in the medium was adjusted to 0-100.00 μg/mL, and three parallel samples were set for each concentration. […] The toxicity regression equation of the tested compound was obtained, taking the logarithm of compound concentration (lgc) as the independent variable (x) and the probability value of inhibition rate as the dependent variable (y), and the EC50 value of each tested compound was calculated.” for “compound.”

[6] = MTT cytotoxicity evaluation on MCF-7 cells; conditions: human, range 0~100 μM
Experimental: (§2) Cells were incubated at 37 °C in an incubator with 5% CO2. Cell viability was determined using the MTT assay. Briefly, MCF-7 cell lines were seeded at 5000–8000 cells/well in 96-well plates. […] Following a continuous 24 h of incubation, the culture medium was replaced by 90 μL fresh culture medium, and 10 μL MTT solution was added.

[7] = system: MCF-7 cell line; assay: MTT cytotoxicity evaluation on MCF-7 cells; conditions: 100 μM, 24 h
Experimental: as §2

SMILES | inhibition at 50 µg/mL [1] [%] | inhibition at 50 µg/mL [2] [%] | inhibition at 50 µg/mL [3] [%] | inhibition at 50 µg/mL [4] [%] | inhibition at 50 µg/mL [5] [%] | IC50 at 24 h [6] [µM] | EC50 ([2]; read-out: EC50 (μg/mL) F. graminearum) [µg/mL] | cell survival rate of MCF-7 cells [7]
Clc1ccc(-c2nc(-c3ccccc3)no2)cc1 [Compound 4a, 5-(4-Chlorophenyl)-3-phenyl-1,2,4-oxadiazole] | < 10 | 19.1 ± 7.15 | 17.5 ± 2.68 | < 10 |  |  |  | 
COc1ccc(-c2nc(-c3ccccc3)no2)cc1OC [Compound 4b, 5-(3,4-Dimethoxyphenyl)-3-phenyl-1,2,4-oxadiazole] | 18.7 ± 5.82 | 23.8 ± 7.22 | 60.4 ± 1.68 | < 10 | < 10 |  |  | 
CC(C)(C)c1ccc(-c2nc(-c3ccccc3)no2)cc1 [Compound 4c, 5-(4-(tert-Butyl)phenyl)-3-phenyl-1,2,4-oxadiazole] | 10.7 ± 3.54 | 33.5 ± 3.88 | 30.1 ± 1.95 | < 10 | < 10 |  |  | 
Oc1cccc(-c2nc(-c3ccccc3)no2)c1 [Compound 4d, 3-(3-Phenyl-1,2,4-oxadiazol-5-yl) phenol] | 18.6 ± 2.71 | 40.2 ± 1.5 | 46.1 ± 0.74 | 36.8 ± 9.53 | 22.3 ± 2.97 | ≥ 100 |  | 
Oc1cc(O)cc(-c2nc(-c3ccccc3)no2)c1 [Compound 4e, 5-(3-Phenyl-1,2,4-oxadiazol-5-yl) benzene-1,3-diol] | 16.6 ± 1.47 | 30.1 ± 4.51 | 26.5 ± 3.09 | < 10 | 18.8 ± 3.1 | ≥ 100 |  | 
Oc1cc(-c2nc(-c3ccccc3)no2)cc(O)c1O [Compound 4g, 5-(3-Phenyl-1,2,4-oxadiazol-5-yl) benzene-1,2,3-triol] | 39.9 ± 3.44 | 56.9 ± 6.74 | 38.7 ± 1 | < 10 | 47.6 ± 1.05 |  | 80.5 (≈ 298 µM) | 
FC(F)(F)c1ccc(-c2nc(-c3ccccc3)no2)cc1 [Compound 4h, 3-Phenyl-5-(4-(trifluoromethyl)phenyl)-1,2,4-oxadiazole] | < 10 | 29 ± 8.54 | < 10 | < 10 | < 10 |  |  | 
O=[N+]([O-])c1ccc(-c2nc(-c3ccccc3)no2)cc1 [Compound 4i, 5-(4-Nitrophenyl)-3-phenyl-1,2,4-oxadiazole] | < 10 | < 10 | < 10 | < 10 |  |  |  | significant cell proliferation
COc1ccc(-c2noc(-c3ccc(Cl)cc3)n2)cc1 [Compound 4j, 5-(4-Chlorophenyl)-3-(4-methoxyphenyl)-1,2,4-oxadiazole] | < 10 | < 10 | < 10 | < 10 | < 10 |  |  | 
COc1ccc(-c2noc(-c3ccc(OC)c(OC)c3)n2)cc1 [Compound 4k, 5-(3,4-Dimethoxyphenyl)-3-(4-methoxyphenyl)-1,2,4-oxadiazole] | 22.6 ± 8.85 | 21.7 ± 2.53 | < 10 | < 10 | < 10 |  |  | 
COc1ccc(-c2noc(-c3ccc(Cl)cc3)n2)cc1OC [Compound 4m, 5-(4-Chlorophenyl)-3-(3,4-dimethoxyphenyl)-1,2,4-oxadiazole] | 11.7 ± 5.11 | < 10 | 15.2 ± 0.77 |  |  |  |  | 
COc1ccc(-c2noc(-c3ccc(C(C)(C)C)cc3)n2)cc1OC [Compound 4n, 5-(4-(tert-Butyl)phenyl)-3-(3,4-dimethoxyphenyl)-1,2,4-oxadiazole] | < 10 | < 10 | 29.8 ± 1.26 | < 10 | < 10 | ≥ 100 |  | 
COc1ccc(-c2noc(-c3cccc(O)c3)n2)cc1OC [Compound 4o, 3-(3-(3,4-Dimethoxyphenyl)-1,2,4-oxadiazol-5-yl)phenol] | 24.4 ± 1.65 | 55.1 ± 2.99 | 28.1 ± 1.65 | < 10 | 20.8 ± 0.59 |  |  | 
COc1cc(-c2noc(-c3ccc(Cl)cc3)n2)cc(OC)c1OC [Compound 4s, 5-(4-Chlorophenyl)-3-(3,4,5-trimethoxyphenyl)-1,2,4-oxadiazole] | < 10 | < 10 | < 10 | < 10 | < 10 |  |  | 
COc1ccc(-c2nc(-c3cc(OC)c(OC)c(OC)c3)no2)cc1OC [Compound 4t, 5-(3,4-Dimethoxyphenyl)-3-(3,4,5-trimethoxyphenyl)-1,2,4-oxadiazole] | < 10 | 28.3 ± 2.19 | < 10 | < 10 |  |  |  | significant cell proliferation
COc1cc(-c2noc(-c3ccc(C(C)(C)C)cc3)n2)cc(OC)c1OC [Compound 4u, 5-(4-(tert-Butyl)phenyl)-3-(3,4,5-trimethoxyphenyl)-1,2,4-oxadiazole] | < 10 | < 10 | < 10 | < 10 | < 10 | ≥ 100 |  | 
COc1cc(-c2noc(-c3cccc(O)c3)n2)cc(OC)c1OC [Compound 4v, 3-(3-(3,4,5-Trimethoxyphenyl)-1,2,4-oxadiazol-5-yl) phenol] | < 10 | 26.1 ± 9.47 | 15.5 ± 3.53 | < 10 | < 10 |  |  | 
COc1ccc(-c2nc(-c3ccc(OC)c(OC)c3)no2)cc1 [Compound 4w, 3-(3,4-Dimethoxyphenyl)-5-(4-methoxyphenyl)-1,2,4-oxadiazole] | < 10 | < 10 | < 10 | < 10 | < 10 |  |  | 
C(=C\c1nc(-c2ccccc2)no1)/c1ccccc1 [Compound 5a, (E)-3-Phenyl-5-styryl-1,2,4-oxadiazole] | 14.5 ± 6.32 | < 10 | 21.1 ± 3.85 | < 10 |  |  |  | 
COc1cc(/C=C/c2nc(-c3ccccc3)no2)cc(OC)c1OC [Compound 5b, (E)-3-Phenyl-5-(3,4,5-trimethoxystyryl)-1,2,4-oxadiazole] | 21.2 ± 2.78 | 36.1 ± 1.67 | 31.8 ± 1.44 | 30.2 ± 6.4 | 20.6 ± 4.48 | ≥ 100 |  | 
Clc1ccc(/C=C/c2nc(-c3ccccc3)no2)cc1 [Compound 5c, (E)-5-(4-Chlorostyryl)-3-phenyl-1,2,4-oxadiazole] | < 10 | < 10 | < 10 | < 10 |  |  |  | significant cell proliferation
COc1ccc(-c2noc(/C=C/c3ccccc3)n2)cc1 [Compound 5d, (E)-3-(4-Methoxyphenyl)-5-styryl-1,2,4-oxadiazole] | < 10 | 19 ± 7.4 | 19.2 ± 2.39 | 21.7 ± 6.82 |  |  |  | 
